{"source": "paper PMC12520456", "about": "“Regulating Enzyme Activity via Microaggregates Mediated by Phase Separation” (Advanced Science, 2025)", "key": {"[1]": {"system": "postoperative pancreatic fistula (POPF)", "test": "Rat pancreatic splenic duct transection (non-lethal) POPF model", "type": "in vivo", "description": "To investigate the biofunction of DPMD in preventing POPF, a slowly occurring POPF model was established in rats by transecting the peripancreatic splenic duct to induce a continuous but low leakage of pancreatic juice (Figure 3A). Following surgical modeling, DPMD, its L‐enantiomer LPMD, or normal saline (Ctrl) were topically applied on the incision site. After post operation, chymotrypsin leakage was assessed using a specific fluorescent dye. […] By monitoring ascitic and serum amylase and lipase levels over a span of 7 days following surgical modeling (Figure 3C), we were able to make inferences about the pathological score (Figure 3D) and the occurrence of POPF (Figure 3E). The noteworthy observation is that all the mock‐treated rats experienced POPF on day 3 following surgical modeling, and this phenomenon persisted until day 5 (Figure 3E). In contrast, LPMD reduced both the occurrence and severity of POPF, resulting in 33% of rats being healthy and only 67% experiencing minor POPF on day 3; furthermore, all rats fully recovered by day 5 (Figure 3E). […] Furthermore, both DPMD and LPMD treatments decreased inflammation markers including TNF‐α, IL‐6, IL‐8, IL‐33, sST2, CRP, HMGB1, MPO, PAF, PCT, PGE2, and SAA in rats’ serum (Figure 3G). […]\n(§1) was performed using an Annexin V-Alexa Fluor 647/PI kit (Solarbio) according to the manufacturer’ s protocol. Briefly, adherent cells were detached with 0.25% EDTA-free trypsin, combined with floating cells from the supernatant. The pellet was washed twice with cold PBS and resuspended in 100 μL of 1× binding buffer. After adding Annexin V-647 and PI, cells were incubated for 15 min in the dark at room temperature. Samples were analyzed within 1h on a Sony MA900 flow cytometer.\n(§2) 3.12 Animal fluorescence imaging\n(§3) Rats were intraperitoneally injected with 1 mL of rhodamine-labeled 0.5% (w/v) DPMD. […] The fluorescence emission intensity of the organs was measured using IVIS Spectrum system (PerkinElmer). […]"}, "[2]": {"system": "postoperative pancreatic fistula (POPF)", "test": "Rat pancreatic common duct transection (lethal) POPF model", "type": "in vivo", "description": "In order to challenge the efficacy of DPMD in emergency treatments for POPF, a lethal rat model of POPF was established through transection of the main pancreatic duct. After 8 h post‐surgical modeling, evidence of severe POPF was observed through the presence of leaky Chymotrypsin (Figure S11, Supporting Information). At this critical juncture, DPMD, LPMD or an equal volume normal saline solution were administered via syringe injection into the abdominal cavity near the pancreas. […] Consequently, all […] rats subjected to the mock treatment succumbed to three days post‐surgical modeling, while LPMD only extended the median survival from 2 days in Ctrl to 3 days in LPMD (Figure 4D). […] Furthermore, both DPMD and LPMD treatments decreased inflammation markers including TNF‐α, IL‐6, IL‐8, IL‐33 sST2, CRP, HMGB1, MPO, PAF, PCT, PGE2 and SAA present in rat serum (Figure 4G).\nWithout damaging the surrounding pancreatic tissue and capillaries, a transverse incision on the pancreatic splenic duct was performed using micro-scissors. Successful modelling is confirmed by observing external leakage of pancreatic fluid. Place a self-made drainage tube into the rat's abdominal cavity with its outlet positioned at the site of the transected splenic duct, then exit through the abdominal wall and fix it there.\n3.14 Construction of rat pancreatic common duct transection model\nAnimal studies were performed according to the protocols approved by the Institution Guidelines and were approved by the Laboratory Animal Center of Xijing Hospital of The Fourth Military Medical University (No. IACUC-20220308). ALL rats were purchased from the Laboratory Animal Center of The Fourth Military Medical University. The rats were housed under standard specific pathogen-free conditions with a 12h–12h light–dark cycle.\nThe preoperative preparation and postoperative care for the rat model were consistent with those of the rat pancreatic splenic duct transection pancreatic fistula model, except for the transecting of the pancreatic common duct of the pancreas in modeling. A custom-made drainage tube outlet was positioned around the area where the pancreatic common duct was transected.\n3.15 Evaluation of the effect of DPMD on pancreatic duct transection model The male SD rats were randomly assigned to six rats in each group. Prepare a pancreatic duct transection model with a pancreatic fistula and apply 0.3 mL of normal saline, 0.3 ml of DPMD, and 0.3 mL of LPMD at the incision site. After 3days, administer 3 mL of MeO-Succ-Arg-Pro-Tyr-AMO solution (ATT Bioquest) to the pancreatic stump and surrounding tissues for fluorescence imaging in real-time under dark field conditions while using an API filter. Blood and ascitic fluid"}, "[3]": {"test": "Animal fluorescence imaging, tissue distribution and urine", "type": "in vivo, rat", "description": "To assess the fate of DPMD in vivo, rats were administered DPMD intraperitoneally and monitored using in vivo fluorescence imaging.\nFigure S14. (A) The cell viability test of NIH-3T3 or HUVEC cells co-cultured with different concentrations DPMD.\n(B) The apoptosis evaluation of NIH-3T3 or HUVEC co-cultured with DPMD, DPMD & Trypsin, DPMD & Chymotrypsin by flow cytometry. (C) Tissue distribution and quantification of DPMD in […] organs measured by IVIS (n=3/point). The fluorescence signal from the organs after DPMD intraperitoneal injection (1 ml, 0.5%) at 1h, 2-day, 3-day, 4-day, 5-day, 6-day, 7-day. (D) The evaluation of distribution DMPD in urine.\n(1 picture or pasted object on this page, not shown here) […]\nas §1, with “After adding Annexin V-647 and PI, cells were incubated for 15 min in the dark at room temperature.” left out\nas §2, §3"}}, "note": "Non-standard residues stand in square brackets, D forms with d. Residues, ends and D or L forms follow the SMILES beside them.", "data": [{"smiles": "CC[C@@H](C)[C@@H](NC(=O)[C@@H](CCC(N)=O)NC(=O)[C@H](NC(=O)[C@@H](Cc1ccc(O)cc1)NC(=O)CNC(=O)[C@@H](CC(C)C)NC(=O)[C@H](NC(=O)[C@@H](CO)NC(=O)CNC(=O)[C@@H](C)NC(=O)[C@@H](CC(=O)O)NC(=O)[C@@H](C)NC(=O)[C@@H](CCCNC(=N)N)NC(=O)[C@@H](C)NC(=O)[C@@H](CC(=O)O)NC(=O)[C@@H](C)NC(=O)[C@@H](CCCNC(=N)N)NC(=O)[C@@H](C)NC(=O)[C@@H](CC(=O)O)NC(=O)[C@@H](C)NC(=O)[C@@H](CCCNC(=N)N)NC(=O)[C@@H](C)NC(=O)[C@@H](CC(=O)O)NC(=O)[C@@H](C)NC(=O)[C@H](N)CCCNC(=N)N)C(C)C)[C@H](C)CC)C(=O)N[C@H](CCCNC(=N)N)C(=O)O", "note": "[DPMD, Ac‐(D‐RADA)4‐CONH2] (H-[dR][dA][dD][dA][dR][dA][dD][dA][dR][dA][dD][dA][dR][dA][dD][dA]G[dS][dV][dL]G[dY][dI][dQ][dI][dR]-OH; N-terminus and C-terminus assumed)", "values": [{"measurement": "β-sheet content", "value": 33.9, "unit": "%"}, {"measurement": "H&E staining of pancreatic tissue", "setting": "[1]; Figure S10", "value": "reduced edema and inflammatory cell infiltration"}, {"measurement": "chymotrypsin leakage by fluorescent dye imaging", "setting": "[1]; topical application at incision site, Figure 3B", "value": "nearly complete suppression of leakage"}, {"measurement": "serum inflammation markers (TNF-α, IL-6, IL-8, IL-33, sST2, CRP, HMGB1, MPO, PAF, PCT, PGE2, SAA)", "setting": "[1]; within 7 days after surgery, Figure 3G", "value": "decreased"}, {"measurement": "chymotrypsin leakage by fluorescence imaging", "setting": "[2]; 3 day after treatment, laparotomy, Figure 4B", "value": "halted the leakage almost entirely"}, {"measurement": "ascitic and serum amylase and lipase levels", "setting": "[2]; compared to mock treatment, Figure 4C", "value": "statistically significant reduction"}, {"measurement": "deaths during the seven-day observation period", "setting": "[2]; injection into abdominal cavity 8 h after modeling, all eight mock-treated rats died within three days", "value": "none of the rats treated with DPMD died"}, {"measurement": "H&E staining of pancreatic tissue", "setting": "[2]; three days after surgery, Figure 4E", "value": "reduced edema and inflammatory cell infiltration"}, {"measurement": "serum inflammation markers (TNF-α, IL-6, IL-8, IL-33, sST2, CRP, HMGB1, MPO, PAF, PCT, PGE2, SAA)", "setting": "[2]; within 7 days after surgery, Figure 4G", "value": "decreased"}, {"measurement": "fluorescence intensity in organs (liver, kidneys, spleen)", "setting": "[3]; 1 mL rhodamine-labeled 0.5% (w/v) DPMD intraperitoneally, IVIS, day 6 post-injection, n=3/point", "value": "barely detectable"}, {"measurement": "fluorescence in urine samples", "setting": "[3]; labeled DPMD intraperitoneally, Figure S14D", "value": "fluorescence appeared in urine samples"}]}]}
